Laboratory results published in PMC10333884, “Large‐scale phosphomimetic screening identifies phospho‐modulated motif‐based protein interactions” (Molecular Systems Biology, 2023).
Blank lines part the entries; values can stand above or below the compound they belong to. Non-standard residues stand in square brackets, D forms with d. Residues, ends and D or L forms follow the SMILES beside them. pT = C[C@@H](OP(=O)(O)O)[C@H](N)C(=O)O; pS = N[C@@H](COP(=O)(O)O)C(=O)O

Legend:
KPNA4 ARM Major = molecular target: T1, KPNA4 ARM Major (Homo sapiens, UniProt O00629); assay: FP displacement assay, KPNA4 ARM major pocket; assay type: binding; settings: major pocket probe FITC-MYC 5 nM, 50 mM sodium phosphate pH 7.4, room temperature, at least three technical replicates, read-out: KD values ± SEM
T1 construct: 60-487; GST (cleaved yes); made in house; host or cells: Escherichia coli BL21-Gold(DE3)
Method: (§1) FP experiments were performed as described previously (Kliche et al, [2021]). Shortly, in order to monitor the binding event, FITC‐labelled peptides were used (excitation 495 nm, emission: 535 nm) and the FP signal was recorded in mP on a SpectraMax iD5 Multi‐Mode Microplate Reader (Molecular Devices) by measuring the emitted light in two angels. The measurements were performed at room temperature and prepared in nonbinding black half area 96‐well microplates (Corning®; 50 μl/well). For measuring direct binding, that is saturation curves, a 1:1 dilution series of protein domain (25 μl/well) was generated in 50 mM sodium phosphate buffer pH 7.4 and the measurement performed with 5 nM FITC‐labelled peptide (25 μl/well). The buffer‐corrected values were subsequently plotted with PRISM and fitted to the quadratic equation (Gianni et al, [2005]).
(§2) The 1:1 dilution series in this experiment was performed with the unlabelled peptide in 50 mM sodium phosphate buffer pH 7.4, so that each well‐contained unlabelled peptide (25 μl) at a certain concentration and pre‐formed complex (25 μl). The KD values of this indirectly monitored binding event were calculated as described previously (Nikolovska‐Coleska et al, [2004]). All measurements were at least in technical triplicates as well as biological duplicates when indicated. An amplitude shift between repeat measurements in the displacement experiments was occasionally observed due to variations in the protein preparations. If that was the case, the “active” protein concentration was back‐calculated according to the quadratic equation from the saturation curves performed in parallel. By comparing the active protein concentrations in the complex between different protein preparations, the amplitude was normalised.

KPNA4 ARM minor = molecular target: T2, KPNA4 ARM minor (Homo sapiens, UniProt O00629); assay: FP displacement assay, KPNA4 ARM minor pocket; assay type: binding; settings: minor pocket probe FITC-NCOR2 5 nM, 50 mM sodium phosphate pH 7.4, room temperature, at least three technical replicates, read-out: KD values ± SEM
T2 construct: 60-487; GST (cleaved yes); made in house; host or cells: Escherichia coli BL21-Gold(DE3)
Method: as §1, §2

bait protein domains = assay: Phosphomimetic ProP-PD selection against the PM_HD2 library (NGS counts, confidence level, PES), any bait; assay type: binding, human; set-up: Confidence / Max confidence: scale not given here; settings: bait ABL1_SH3__P00519_60_121; for Has possible phosphoregulated psite? (PES +2/-2, p<0.01) / Max confidence: hit given as wt version; for Confidence / Promiscuity / Specificity: selection results by peptide
Method: Selections using the PM_HD2 phage library were performed as described previously with minor modification to the original protocol. The corresponding tag protein (either GST or MBP) was first used during negative selections. Selections were run for 4 days. • Bait and tag proteins (10–15 μg in 100 μl PBS) were immobilised in 96‐well MaxiSorb plate (NUNC) o.n. at 4°C. • Escherichia coli OmniMax bacteria were grown in 2YT medium supplemented with tetracycline (100 μg/ml) at 37°C and 200 rpm. • Plates with immobilised bait/tag proteins were blocked with 0.5% BSA in PBS for 1 h at 4°C. • Phage library (10 μl/well) was prepared by diluting 10× with PBS and adding one‐fourth of the volume of PEG/NaCl. For phage precipitation, prepared library was incubated for 10 min on ice followed by centrifugation for 10 min at 10,000 × g at 4°C. Phages were resuspended in 0.5% BSA, 0.05% Tween in PBS. • Plates with tag proteins were washed 4× with 0.05% Tween in PBS, and naïve phage library was added to each well (100 μl/well) and the plates incubated for 1 h at 4°C. • Plates with bait protein were washed 4× with 0.05% Tween in PBS, and nonbound phages were transferred from the tag protein plate and the plates incubated for 1 h at 4°C. • Plates were again washed 5× with 0.05% Tween in PBS, and bound phages were eluted with log‐phase OmniMax bacteria (100 μl/well) by incubating for 30 min at 37°C at 200 rpm. • M13K07 helper phage (10^12 cfu/ml) was added to each well and the plates incubated for 45 min at 37°C at 200 rpm. • Amplification took place o.n. by adding the eluted phages to 1.1 ml 2YT media supplemented with kanamycin (25 μg/ml), carbenicillin (50 μg/ml) and 0.3 μM IPTG in a 96‐deep‐well plate and incubating o.n. at 37°C at 200 rpm. • Bacteria were pelleted by centrifugation for 15 min at 1,700 × g at 4°C. The phage supernatant was pH‐adjusted by the addition of 10× PBS and remaining bacteria heat‐inactivated by incubating for 10 min at 60°C. Selections were repeated as described from (5).
Based on the results from phage pool ELISAs, samples from selection Day 3 and 4 were selected for NGS, as described previously (Benz et al, [2022]). • Peptide coding regions were amplified and dual‐barcoded by PCR. 5 μl of the enriched phage pools (50 μl reactions) and a high‐fidelity phusion polymerase (Roche) were used for the PCR reaction. Amplification was confirmed by running the PCR product on 2% agarose gel with a 50 bp ladder. • PCR products (25 μl) were purified with 25 μl of Mag‐bind Total Pure NGS beads and normalised in the same step by taking 10 μl of each reaction after resuspension (Qiagen Elution buffer: 10 mM Tris‐Cl and 0.1 mM EDTA (pH 8.5)) from the beads. • The samples were cleaned up with a PCR purification kit (Qiagen) and subsequently run on a 2% agarose gel, and bands of the correct size (ca. 200 bp) were purified with the QIAquick Gel extraction Kit (Qiagen). From the columns, samples were eluted with 30 μl TE (10 mM Tris–HCl, 1 mM EDTA. pH 7.5) buffer and quantified with Quant‐iT PicoGreen dsDNA Assay Kit. • Samples were sequenced on MiSeq (MSC 2.5.0.5/RTA 1.18.54) with a 151 nt (Read1) setup using “Version3” chemistry. The Bcl to FastQ conversion was performed using bcl2fastq_v2.20.0.422 from the CASAVA software suite.
The processing of sequencing data was performed as described in Ali et al ([2020]). In brief: Pooled results from ~500 selection experiments were demultiplexed by identifying unique combinations of 5′ and 3′ barcodes, sequences with an average quality score of 20 or more were conserved and their adaptors were trimmed, and DNA sequences translated using in‐house custom Python scripts. A table for each experiment was built containing peptide sequences associated with their sequencing counts. […]

TSG101 UEV = molecular target: T3, TSG101 UEV (Homo sapiens, UniProt Q99816); assay: FP displacement assay, TSG101 UEV; assay type: binding; settings: for IC50: Fig 4B, TSG101 UEV, technical triplicates, read-out: IC50 values of displacement curves, with SEM; for Kd: read-out: KD values ± SEM
T3 construct: TSG101_UEV__Q99816_1_145; made in house; host or cells: Escherichia coli BL21-Gold(DE3)
T3 sequence (Q99816 1-145): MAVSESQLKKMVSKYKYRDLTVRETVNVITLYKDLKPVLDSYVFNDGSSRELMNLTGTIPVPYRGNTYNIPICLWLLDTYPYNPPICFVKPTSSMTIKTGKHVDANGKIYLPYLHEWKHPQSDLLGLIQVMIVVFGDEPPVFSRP
Method: as §1, §2

[1] = probe FITC-HIV2_Gag 5 nM, 50 mM sodium phosphate pH 7.4, room temperature, at least three technical replicates

T2 sequence (O00629 60-487): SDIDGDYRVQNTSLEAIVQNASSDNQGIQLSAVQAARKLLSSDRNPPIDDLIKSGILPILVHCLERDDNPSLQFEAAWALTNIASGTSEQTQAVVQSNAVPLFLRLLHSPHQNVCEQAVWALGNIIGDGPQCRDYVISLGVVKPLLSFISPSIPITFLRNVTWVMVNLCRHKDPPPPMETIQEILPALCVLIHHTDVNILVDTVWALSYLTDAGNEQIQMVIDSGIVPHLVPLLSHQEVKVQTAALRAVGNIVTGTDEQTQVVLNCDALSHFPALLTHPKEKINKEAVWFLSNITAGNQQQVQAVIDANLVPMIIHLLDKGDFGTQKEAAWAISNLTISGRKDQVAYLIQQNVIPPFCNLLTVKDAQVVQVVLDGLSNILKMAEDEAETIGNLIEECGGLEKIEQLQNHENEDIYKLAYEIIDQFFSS
T1 sequence (O00629 60-487): as above

Kd (KPNA4 ARM Major): 8.8 ± 0.2 µM
Kd (KPNA4 ARM minor): 0.2 ± 0.004 µM
Compound: CC(=O)NCC(=O)N[C@@H](C)C(=O)N[C@@H](CO)C(=O)N1CCC[C@H]1C(=O)N[C@@H](C)C(=O)N[C@@H](CC(C)C)C(=O)N[C@@H](CCCCN)C(=O)N[C@@H](CCCNC(=N)N)C(=O)N[C@@H](CO)C(=O)N[C@@H](Cc1c[nH]cn1)C(=O)N[C@@H](CO)C(=O)N[C@@H](CC(=O)O)C(=O)N[C@@H](CO)C(=O)N[C@@H](Cc1ccc(O)cc1)C(N)=O [CDC25A114–125 wt] (Ac-GASPALKRSHSDSY-NH2)

Compound: PATSPPKTPPQLEALQ [listing 1 of 2 here]
Has possible phosphoregulated psite? (PES +2/-2, p<0.01) (bait protein domains): yes
Max confidence (bait protein domains): 3

Compound: PATSPPKEPPQLEALQ
Confidence (bait protein domains): 2
Promiscuity (bait protein domains): 2
Specificity (bait protein domains): 0.9898

Compound: PSYSPPDTSPANRSFV
Confidence (bait protein domains): 2
Promiscuity (bait protein domains): 1
Specificity (bait protein domains): 1

IC50 (TSG101 UEV): 420 ± 29 µM
Kd (TSG101 UEV; [1]): 209 ± 8 µM
Compound: CSCC[C@H](NC(=O)[C@@H]1CCCN1C(=O)[C@H](COP(=O)(O)O)NC(=O)[C@H](CC(C)C)NC(=O)[C@@H]1CCCN1C(=O)[C@H](C)NC(=O)[C@@H](NC(=O)[C@@H]1CCCN1C(=O)[C@H](CO)NC(=O)[C@H](CO)NC(=O)[C@H](C)NC(=O)CNC(=O)[C@H](CC(N)=O)NC(=O)[C@H](Cc1ccc(O)cc1)NC(C)=O)[C@@H](C)O)C(=O)N[C@@H](CO)C(=O)N1CCC[C@H]1C(N)=O [GJA1_269–283 pS] (Ac-YNGASSPTAPL[pS]PMSP-NH2)

Kd (TSG101 UEV; [1]): 232 ± 16 µM
Compound: CSCC[C@H](NC(=O)[C@@H]1CCCN1C(=O)[C@H](CO)NC(=O)[C@H](CC(C)C)NC(=O)[C@@H]1CCCN1C(=O)[C@H](C)NC(=O)[C@@H](NC(=O)[C@@H]1CCCN1C(=O)[C@H](CO)NC(=O)[C@H](CO)NC(=O)[C@H](C)NC(=O)CNC(=O)[C@H](CC(N)=O)NC(=O)[C@H](Cc1ccc(O)cc1)NC(C)=O)[C@@H](C)O)C(=O)N[C@@H](CO)C(=O)N1CCC[C@H]1C(N)=O [GJA1_269–283 wt] (Ac-YNGASSPTAPLSPMSP-NH2)

Compound: PPFSPPPSPRGEVERG
Has possible phosphoregulated psite? (PES +2/-2, p<0.01) (bait protein domains): yes
Max confidence (bait protein domains): 3

Kd (KPNA4 ARM Major): 0.63 ± 0.04 µM
Kd (KPNA4 ARM minor): 2.8 ± 0.4 µM
Compound: CC(=O)NCC(=O)N[C@@H](C)C(=O)N[C@@H](COP(=O)(O)O)C(=O)N1CCC[C@H]1C(=O)N[C@@H](C)C(=O)N[C@@H](CC(C)C)C(=O)N[C@@H](CCCCN)C(=O)N[C@@H](CCCNC(=N)N)C(=O)N[C@@H](CO)C(=O)N[C@@H](Cc1c[nH]cn1)C(=O)N[C@@H](CO)C(=O)N[C@@H](CC(=O)O)C(=O)N[C@@H](CO)C(=O)N[C@@H](Cc1ccc(O)cc1)C(N)=O [CDC25A114–125 pS] (Ac-GA[pS]PALKRSHSDSY-NH2)

Kd (TSG101 UEV; [1]): 14 ± 1 µM
Compound: CC(=O)N[C@@H](Cc1c[nH]cn1)C(=O)N[C@@H](CO)C(=O)NCC(=O)N[C@@H](CC(N)=O)C(=O)N[C@H](C(=O)N[C@H](C(=O)N1CCC[C@H]1C(=O)N[C@H](C(=O)N[C@@H](C)C(=O)N1CCC[C@H]1C(=O)N1CCC[C@H]1C(=O)N[C@@H](Cc1ccc(O)cc1)C(=O)N[C@@H](CC(C)C)C(=O)N[C@@H](CCC(N)=O)C(=O)N[C@@H](CCC(=O)O)C(=O)N[C@@H](CO)C(N)=O)[C@@H](C)O)[C@@H](C)O)C(C)C [PIP4P2_17–32 wt] (Ac-HSGNVTPTAPPYLQES-NH2)

Compound: DAPPHYPPPSTAAASP [listing 1 of 2 here]
Has possible phosphoregulated psite? (PES +2/-2, p<0.01) (bait protein domains): yes
Max confidence (bait protein domains): 3

Compound: DAPPHYPPPSTAAAEP
Confidence (bait protein domains): 3
Promiscuity (bait protein domains): 4
Specificity (bait protein domains): 0.8807

Compound: DAPPHYPPPSTAAASP [listing 2 of 2 here]
Confidence (bait protein domains): 2
Promiscuity (bait protein domains): 3
Specificity (bait protein domains): 0.7461

IC50 (TSG101 UEV): 34 ± 10 µM
Kd (TSG101 UEV; [1]): 16 ± 3 µM
Compound: CC(=O)N[C@@H](Cc1c[nH]cn1)C(=O)N[C@@H](CO)C(=O)NCC(=O)N[C@@H](CC(N)=O)C(=O)N[C@H](C(=O)N[C@H](C(=O)N1CCC[C@H]1C(=O)N[C@H](C(=O)N[C@@H](C)C(=O)N1CCC[C@H]1C(=O)N1CCC[C@H]1C(=O)N[C@@H](Cc1ccc(O)cc1)C(=O)N[C@@H](CC(C)C)C(=O)N[C@@H](CCC(N)=O)C(=O)N[C@@H](CCC(=O)O)C(=O)N[C@@H](CO)C(N)=O)[C@@H](C)O)[C@@H](C)OP(=O)(O)O)C(C)C [PIP4P2_17–32 pS] (Ac-HSGNV[pT]PTAPPYLQES-NH2)

Compound: SPPRPPPPPPLLGTVS
Has possible phosphoregulated psite? (PES +2/-2, p<0.01) (bait protein domains): yes
Max confidence (bait protein domains): 3

IC50 (TSG101 UEV): 34 ± 10 µM
Kd (TSG101 UEV; [1]): 16 ± 3 µM
Compound: CC[C@H](C)[C@H](NC(=O)[C@H](CO)NC(=O)[C@H](CCC(N)=O)NC(C)=O)C(=O)N[C@@H](C)C(=O)N[C@@H](CCCNC(=N)N)C(=O)N[C@@H](CCC(=O)O)C(=O)N1CCC[C@H]1C(=O)N[C@@H](CO)C(=O)N[C@@H](C)C(=O)N1CCC[C@H]1C(=O)N[C@@H](CO)C(=O)N[C@H](C(=O)N1CCC[C@H]1C(=O)N[C@H](C(=O)N1CCC[C@H]1C(=O)N[C@@H](Cc1ccc(O)cc1)C(N)=O)[C@@H](C)O)[C@@H](C)CC [PDCD6IP711–725 wt] (Ac-QSIAREPSAPSIPTPY-NH2)

KD values ± SEM (TSG101 UEV; [1]): n.b.
Compound: H3COC-QSIAREPS(pS/E)APSIPTPY-NH2 [PDCD6IP711–725 pS, phosphorylated PDCD6IP 711-725 peptide]

Compound: LTYPQYSPPQPRPGVI
Has possible phosphoregulated psite? (PES +2/-2, p<0.01) (bait protein domains): yes
Max confidence (bait protein domains): 4

Compound: PATSPPKTPPQLEALQ [listing 2 of 2 here]
Confidence (bait protein domains): 3
Promiscuity (bait protein domains): 3
Specificity (bait protein domains): 0.9995
